These results are taken from patent US20090202430A1, “COMPOSITION FOR CYTOCOMPATIBLE, INJECTABLE, SELF-GELLING POLYSACCHARIDE SOLUTIONS FOR ENCAPSULATING AND DELIVERING LIVE CELLS OR BIOLOGICALLY ACTIVE FACTORS” (BIO SYNTECH CANADA INC., priority 2002, published 2009).

One series has as its system cells. Kind of series: Viability of cells maintained in cross-linker solution (FIG. 4A). It is filed as cell-based. Particulars: cells incubated in 0.3% peroxide for the same time period (up to 72 hours). Here is the method:
FIG. 4A illustrates viability of cells maintained in hydroxyethyl cellulose, or glyoxal cross-linker for over an hour;
In FIG. 4A, high viability is maintained after encapsulation in cross-linked chitosan with glyoxal, or hydroxyethyl cellulose-glyoxal. FIG. 4A illustrates that the active hydroxyethyl cellulose-cross linker is cytocompatible. Cells incubated up to 72 hours in active cross-linker remain over 95% viable. Cells incubated in 0.3% peroxide for the same time period are 100% non-viable. After mixing with chitosan and injecting through a syringe with a 26-gauge needle, encapsulated cells in solid gel remain over 95% viable. After mixing with chitosan and pouring into a petri, encapsulated cells in solid gel remain over 95% viable after 1 day of culture.

In another series the test system is encapsulated cells. Kind of series: MTT assay (live cell metabolism) and Hoechst DNA assay (cell proliferation) of cells in cross-linked chitosan gels (FIG. 4B). Type of series: cell-based. Conditions: MTT and Hoechst DNA assays, after encapsulation. An excerpt: In FIG. 4B, as shown by MTT assay on day 1 encapsulated cells, hydroxyethyl cellulose offers additional protection to cells immediately post-encapsulation.
(In general: Tetrazolium dyes change colour on reduction, which living cells bring about.)

With `OO` [peroxide], in the series on cells, the non-viable cells was 100%.
In the case of `O=CC=O` [glyoxal], the “viability and proliferation of cells encapsulated in chitosan gel” value in the series on encapsulated cells is “viable after encapsulation and proliferate in the gel”.
